What was measured:
Assay type in all cases: in vivo
[1] = tested on: Aedes aegypti; assay: 12 well plate knockdown test; details: 1 h, read-out: Aedes aegypti 1 hour % KD; for pest or weed control at 0.2 ppm: Rate 0.2 PPM; for pest or weed control at 2 ppm: Rate 2 PPM; for pest or weed control at 20 ppm: Rate 20 PPM; for pest or weed control at 200 ppm: Rate 200 PPM
Experimental: (§1) The individual wells of a twelve (12) well tissue culture plates were treated with 100 μl of an ethanol solution containing a test compound at a defined concentration. Once the deposits were dry, five non-blood fed adult female Aedes aegypti or Anopheles stephensi (between two to five day old) were added to each well, and sustained with a 10% sucrose solution in a cotton wool plug. Assessment of the knockdown after 1 hour was carried out. Where multiple replicates of a treatment have been undertaken, the mean of those replicates is reported.

[2] = tested on: Anopheles stephensi; assay: 12 well plate knockdown test; details: 1 h, read-out: Anopheles stephensi 1 hour % KD; for pest or weed control at 0.2 ppm: Rate 0.2 PPM; for pest or weed control at 2 ppm: Rate 2 PPM; for pest or weed control at 20 ppm: Rate 20 PPM; for pest or weed control at 200 ppm: Rate 200 PPM
Experimental: as §1

[3] = tested on: Anopheles stephensi; assay: 6 well plate test, knockdown after 1 hour and mortality after 24 and 48 hours; design: KD: unit not given here; details: for KD: after 1 hour; for knockdown after 1 hour, Alone: Table B10
Experimental: The individual wells of six (6) well tissue culture plates were treated with […] of an ethanol solution containing a test compound at a defined concentration. Once the deposits were dry, ten non-blood fed adult female Anopheles stephensi (between two to five day old) were added to each well, and sustained with a 10% sucrose solution in a cotton wool plug. Assessment of the knockdown after 1 hour (Tables B1-B10), and mortality after 24 and 48 hours (Tables B1-B4) was carried out.
In case of multiple tests, the mean value is reported.

Compound: CC(C)CC(=O)ON(C)C(=O)c1cnccc1C(F)(F)F [I.10]
- pest or weed control at 0.2 ppm [1]: 100%
- pest or weed control at 2 ppm [1]: 100%
- pest or weed control at 20 ppm [1]: 100%
- pest or weed control at 200 ppm [1]: 100%
- pest or weed control at 0.2 ppm [2]: 40%
- pest or weed control at 2 ppm [2]: 60%
- pest or weed control at 20 ppm [2]: 100%
- pest or weed control at 200 ppm [2]: 100%

Compound: CC(C#N)NC(=O)c1cnccc1C(F)(F)F (centres unmarked) [I.11]
- pest or weed control at 0.2 ppm [1]: 100%
- pest or weed control at 2 ppm [1]: 100%
- pest or weed control at 20 ppm [1]: 100%
- pest or weed control at 200 ppm [1]: 100%

Compound: CC(C)NOC(=O)c1cnccc1C(F)(F)F [I.12]
- pest or weed control at 0.2 ppm [1]: 100%
- pest or weed control at 2 ppm [1]: 100%
- pest or weed control at 20 ppm [1]: 100%
- pest or weed control at 200 ppm [1]: 100%
- pest or weed control at 0.2 ppm [2]: 0%
- pest or weed control at 2 ppm [2]: 80%
- pest or weed control at 20 ppm [2]: 100%
- pest or weed control at 200 ppm [2]: 100%

Compound: O=C(NC(=O)c1cnccc1C(F)(F)F)c1cccs1 [I.13]
- pest or weed control at 0.2 ppm [1]: 0%
- pest or weed control at 2 ppm [1]: 100%
- pest or weed control at 20 ppm [1]: 100%
- pest or weed control at 200 ppm [1]: 100%
- pest or weed control at 0.2 ppm [2]: 0%
- pest or weed control at 2 ppm [2]: 60%
- pest or weed control at 20 ppm [2]: 100%
- pest or weed control at 200 ppm [2]: 100%

Compound: N/C(=N/C(=O)c1cnccc1C(F)(F)F)c1ncccn1 [I.14]
- pest or weed control at 0.2 ppm [1]: 0%
- pest or weed control at 2 ppm [1]: 100%
- pest or weed control at 20 ppm [1]: 100%
- pest or weed control at 200 ppm [1]: 100%
- pest or weed control at 0.2 ppm [2]: 40%
- pest or weed control at 2 ppm [2]: 40%
- pest or weed control at 20 ppm [2]: 100%
- pest or weed control at 200 ppm [2]: 100%

Compound: CCN(Cc1ccccc1)C(=O)c1cnccc1C(F)(F)F [I.15]
- pest or weed control at 0.2 ppm [1]: 100%
- pest or weed control at 2 ppm [1]: 100%
- pest or weed control at 20 ppm [1]: 100%
- pest or weed control at 200 ppm [1]: 100%
- pest or weed control at 0.2 ppm [2]: 0%
- pest or weed control at 2 ppm [2]: 0%
- pest or weed control at 20 ppm [2]: 0%
- pest or weed control at 200 ppm [2]: 0%

Compound: CCCN1CN=C(c2cnccc2C(F)(F)F)OC1=O [I.16]
- pest or weed control at 0.2 ppm [1]: 0%
- pest or weed control at 2 ppm [1]: 60%
- pest or weed control at 20 ppm [1]: 60%
- pest or weed control at 200 ppm [1]: 100%
- pest or weed control at 0.2 ppm [2]: 0%
- pest or weed control at 2 ppm [2]: 0%
- pest or weed control at 20 ppm [2]: 0%
- pest or weed control at 200 ppm [2]: 0%

Compound: C=CCONC(=O)c1cnccc1C(F)(F)F [I.17]
- pest or weed control at 0.2 ppm [1]: 0%
- pest or weed control at 2 ppm [1]: 0%
- pest or weed control at 20 ppm [1]: 0%
- pest or weed control at 200 ppm [1]: 0%
- pest or weed control at 0.2 ppm [2]: 0%
- pest or weed control at 2 ppm [2]: 0%
- pest or weed control at 20 ppm [2]: 20%
- pest or weed control at 200 ppm [2]: 100%

Compound: CCOCn1c(-c2ccc(Cl)cc2)c(C#N)c(Br)c1C(F)(F)F [chlorfenapyr]
- 24 hr mort ([3]; Table B1, 0.0625 ppm alone): 0.0
- 48 hr mort ([3]; Table B1, 0.0625 ppm alone): 0.0
- KD ([3]; Table B1, 0.0625 ppm alone): 0.0
- 24 hr mort ([3]; Table B1, 0.125 ppm alone): 0.0
- 48 hr mort ([3]; Table B1, 0.125 ppm alone): 0.0
- KD ([3]; Table B1, 0.125 ppm alone): 0.0
- 24 hr mort ([3]; Table B1, 0.25 ppm alone): 0.0
- 48 hr mort ([3]; Table B1, 0.25 ppm alone): 3.3
- KD ([3]; Table B1, 0.25 ppm alone): 0.0
- 24 hr mort ([3]; Table B1, 0.5 ppm alone): 0.0
- 48 hr mort ([3]; Table B1, 0.5 ppm alone): 16.7
- KD ([3]; Table B1, 0.5 ppm alone): 0.0
- 24 hr mort ([3]; Table B1, 1 ppm alone): 6.7
- 48 hr mort ([3]; Table B1, 1 ppm alone): 50.0
- KD ([3]; Table B1, 1 ppm alone): 0.0
- 24 hr mort ([3]; Table B1, 2 ppm alone): 40.0
- 48 hr mort ([3]; Table B1, 2 ppm alone): 90.0
- KD ([3]; Table B1, 2 ppm alone): 0.0
- 24 hr mort ([3]; Table B2, 0.0625 ppm alone): 0.0
- 48 hr mort ([3]; Table B2, 0.0625 ppm alone): 0.0
- KD ([3]; Table B2, 0.0625 ppm alone): 0.0
- 24 hr mort ([3]; Table B2, 0.125 ppm alone): 0.0
- 48 hr mort ([3]; Table B2, 0.125 ppm alone): 0.0
- KD ([3]; Table B2, 0.125 ppm alone): 0.0
- 24 hr mort ([3]; Table B2, 0.25 ppm alone): 0.0
- 48 hr mort ([3]; Table B2, 0.25 ppm alone): 0.0
- KD ([3]; Table B2, 0.25 ppm alone): 0.0
- 24 hr mort ([3]; Table B2, 0.5 ppm alone): 0.0
- 48 hr mort ([3]; Table B2, 0.5 ppm alone): 0.0
- KD ([3]; Table B2, 0.5 ppm alone): 0.0
- 24 hr mort ([3]; Table B2, 1 ppm alone): 20.0
- 48 hr mort ([3]; Table B2, 1 ppm alone): 40.0
- KD ([3]; Table B2, 1 ppm alone): 0.0
- 24 hr mort ([3]; Table B2, 2 ppm alone): 50.0
- 48 hr mort ([3]; Table B2, 2 ppm alone): 100.0
- KD ([3]; Table B2, 2 ppm alone): 0.0

Compound: CCN(CC)c1nc(C)cc(OP(=S)(OC)OC)n1 [pirimiphos-methyl]
- 24 hr mort ([3]; Table B3, 0.03125 ppm alone): 0.0
- 48 hr mort ([3]; Table B3, 0.03125 ppm alone): 0.0
- KD ([3]; Table B3, 0.03125 ppm alone): 0.0
- 24 hr mort ([3]; Table B3, 0.0625 ppm alone): 0.0
- 48 hr mort ([3]; Table B3, 0.0625 ppm alone): 0.0
- KD ([3]; Table B3, 0.0625 ppm alone): 0.0
- 24 hr mort ([3]; Table B3, 0.125 ppm alone): 0.0
- 48 hr mort ([3]; Table B3, 0.125 ppm alone): 0.0
- KD ([3]; Table B3, 0.125 ppm alone): 0.0
- 24 hr mort ([3]; Table B3, 0.25 ppm alone): 50.0
- 48 hr mort ([3]; Table B3, 0.25 ppm alone): 50.0
- KD ([3]; Table B3, 0.25 ppm alone): 0.0
- 24 hr mort ([3]; Table B3, 0.5 ppm alone): 100.0
- 48 hr mort ([3]; Table B3, 0.5 ppm alone): 100.0
- KD ([3]; Table B3, 0.5 ppm alone): 0.0
- 24 hr mort ([3]; Table B3, 1 ppm alone): 100.0
- 48 hr mort ([3]; Table B3, 1 ppm alone): 100.0
- KD ([3]; Table B3, 1 ppm alone): 10.0
- knockdown after 1 hour, Alone ([3]; 0.0625 ppm): 0.0
- knockdown after 1 hour, Alone ([3]; 0.125 ppm): 0.0
- knockdown after 1 hour, Alone ([3]; 0.25 ppm): 50.0
- knockdown after 1 hour, Alone ([3]; 0.5 ppm): 100.0
- knockdown after 1 hour, Alone ([3]; 1 ppm): 100.0
